Where two headings read alike, the source gives them in different places.

Data on 31 compounds can be found in patent US7071190B2, “Inhibitors to tubulin polymerization” (Rigel Pharmaceuticals, Inc., priority 2002, dated 2006).

The subject of this assay is A549 cells. Briefly: Bromodeoxyuridine (BrdU) proliferation assay. Conditions: for IC50: BrdU ELISA 48 hours after addition of compound, tested 0.03-10 uM, cell line not given (A549 method; SW-480 and MDA-MB-231 also used), read-out: Assay Result (IC50μM); for Activity ranking: most active compounds of the invention / Activity ranking: particularly active examples of the compounds of the invention: antiproliferative activity. Format: cell-based, human. The method, then:
In order to determine the antiproliferative activity of microtubule inhibitors, A549 cells were plated in 96 well plates at 2000 cells/well 24 hours prior to the addition of a compound of the invention in 80 ul growth media (F12K, 10% FBS, Pen/Strep). Prior to addition to cells, compounds were solubilized in 100% DMSO to 5 mM and serially diluted in 6 semi-log steps in 100% DMSO. The diluted compounds were added to cells by two 15.8-fold dilution steps, the first being a dilution into a 23% ethanol/H2O mixture and the second being a dilution into growth media. Finally, these dilutions were followed by a 1:1 dilution onto cells. The resulting final solvent concentration was 0.2% DMSO/0.75% ethanol. Compounds were tested at final concentrations of 10, 3, 1, 0.3, 0.1 and 0.03 uM. Forty-eight hours after the addition of compound, the effects on cellular proliferation were measured using a cell proliferation BrdU ELISA (Roche Molecular Biochemicals, Cat.#1 669 915).
For orientation: Incorporation of labelled thymidine or its analogues reports DNA synthesis.

With `S=C(NNc1ncnc2cc(-c3ccccc3)sc12)Nc1ccccc1` [Compound 2], the IC50 was 0.39 µM, the “Activity ranking: most active compounds of the invention” value (“Activity ranking: most active compounds” below) is listed as “most active” and the “Activity ranking: particularly active examples of the compounds of the invention” value is given as “particularly active”.
For `FC(F)(F)c1ccccc1NC(=S)NNc1ncnc2cc(-c3ccccc3)sc12` [Compound 4], the “Activity ranking: most active compounds” value is on record as “most active” and the “Activity ranking: particularly active examples of the compounds of the invention” value is listed as “particularly active”. Also, for the setting “Homo sapiens, A549, 48 h”, the IC50 amounted to 0.904 µM.
The matching figures for `COc1cccc(NC(=S)NNc2ncnc3cc(-c4ccccc4)sc23)c1` [Compound 5]: “most active”, “particularly active” and 0.49 µM.
In the same order, the values of `COc1ccccc1NC(=S)NNc1ncnc2cc(-c3ccccc3)sc12` [Compound 6] are “most active”, “particularly active” and 0.329 µM.
As to `CCOC(=O)c1ccccc1NC(=S)NNc1ncnc2cc(-c3ccccc3)sc12` [Compound 10], the “Activity ranking: particularly active examples of the compounds of the invention” value was “particularly active”. Besides, the IC50 (Homo sapiens, A549, 48 h) was found to be 1.33 µM.
Regarding `CCOC(=O)c1ccccc1NC(=S)NNc1ncnc2cc(-c3ccccc3)sc12` [Compound 11], the IC50 stood at 2.2 µM and the “Activity ranking: particularly active examples of the compounds of the invention” value is “particularly active”.
Consider `COc1ccc(NC(=S)NNc2ncnc3cc(-c4ccccc4)sc23)c(OC)c1` [Compound 13], for which the IC50 worked out at 0.38 µM, the “Activity ranking: most active compounds” value was “most active” and the “Activity ranking: particularly active examples of the compounds of the invention” value is given as “particularly active”.
Turning to `COc1ccc(NC(=S)NNc2ncnc3cc(-c4ccccc4)sc23)c(OC)c1` [Compound 14], the IC50 is 26.7 µM.
On to `COc1ccc(NC(=S)NNc2ncnc3cc(-c4ccccc4)sc23)cc1OC` [Compound 15], for which the “Activity ranking: particularly active examples of the compounds of the invention” value is reported as “particularly active”. Also, the IC50 (Homo sapiens, A549, 48 h) came out at 6.7 µM.
As for `COc1ccc(OC)c(NC(=S)NNc2ncnc3cc(-c4ccccc4)sc23)c1` [Compound 16], the “Activity ranking: most active compounds” value is listed as “most active” and the “Activity ranking: particularly active examples of the compounds of the invention” value was “particularly active”. Also, where the note is “Homo sapiens, A549, 48 h”, the IC50 stood at 0.998 µM.
Turning to `COc1cc([N+](=O)[O-])ccc1NC(=S)NNc1ncnc2cc(-c3ccccc3)sc12` [Compound 17], the IC50 was 5.11 µM and the “Activity ranking: particularly active examples of the compounds of the invention” value is “particularly active”.
In the same order, the values of `COc1cc([N+](=O)[O-])ccc1NC(=S)NNc1ncnc2cc(-c3ccccc3)sc12` [Compound 18] are 10.7 µM and “particularly active”.
Consider `S=C(NNc1ncnc2cc(-c3ccccc3)sc12)NC1CCCC1` [Compound 20], for which the “Activity ranking: most active compounds” value is on record as “most active” and the “Activity ranking: particularly active examples of the compounds of the invention” value is listed as “particularly active”. Moreover, under “Homo sapiens, A549, 48 h”, the IC50 amounted to 0.071 µM.
In the case of `S=C(NNc1ncnc2cc(-c3ccccc3)sc12)N[C@@H]1CCC[C@H]1OCc1ccccc1` [Compound 22], the “Activity ranking: particularly active examples of the compounds of the invention” value is “particularly active”. Besides, the IC50 (Homo sapiens, A549, 48 h) was found to be 5.57 µM.
In the same order, the values of `S=C(NNc1ncnc2cc(-c3ccccc3)sc12)Nc1cccnc1` [Compound 25] are “particularly active” and 6.44 µM.
In the same order, the values of `NC(=S)NNc1ncnc2cc(-c3ccccc3)sc12` [Compound 26] are “particularly active” and 5.75 µM.
The matching figures for `OCCCCNC(=S)NNc1ncnc2cc(-c3ccccc3)sc12` [Compound 28]: “particularly active” and 6.31 µM.
On to `Cc1ccc(-c2cc3ncnc(NNC(N)=S)c3s2)cc1` [Compound 30], for which the “Activity ranking: particularly active examples of the compounds of the invention” value is on record as “particularly active”. Moreover, the IC50 (Homo sapiens, A549, 48 h) was 1.97 µM.
Regarding `Cc1ccc(-c2cc3ncnc(NNC(=S)Nc4ccccc4)c3s2)cc1` [Compound 31], the “Activity ranking: most active compounds” value was “most active” and the “Activity ranking: particularly active examples of the compounds of the invention” value is given as “particularly active”. Also, the IC50 (Homo sapiens, A549, 48 h) stood at 0.369 µM.
The matching figures for `COc1ccc(-c2cc3ncnc(NNC(=S)Nc4ccccc4)c3s2)cc1` [Compound 33]: “most active”, “particularly active” and 0.155 µM.
Turning to `S=C(NNc1ncnc2cc(-c3ccc(Cl)cc3)sc12)Nc1ccccc1` [Compound 34], the “Activity ranking: particularly active examples of the compounds of the invention” value is “particularly active”. Under “Homo sapiens, A549, 48 h”, the IC50 is 1.5 µM.
As for `S=C(NNc1ncnc2cc(-c3cccc(Cl)c3)sc12)Nc1ccccc1` [Compound 35], the “Activity ranking: particularly active examples of the compounds of the invention” value is reported as “particularly active”. For the same compound, the IC50 (Homo sapiens, A549, 48 h) was 2.79 µM.
As to `Cc1ccc(-c2cc3ncnc(NNC(=S)NC4CC4)c3s2)cc1` [Compound 38], the “Activity ranking: most active compounds” value is listed as “most active” and the “Activity ranking: particularly active examples of the compounds of the invention” value is “particularly active”. Besides, the IC50 (Homo sapiens, A549, 48 h) came to 0.121 µM.
Take `S=C(NNc1ncnc2cc(-c3cccc(Cl)c3)sc12)NC1CC1` [Compound 42]: the “Activity ranking: most active compounds” value is on record as “most active” and the “Activity ranking: particularly active examples of the compounds of the invention” value was “particularly active”. For the same compound, under “Homo sapiens, A549, 48 h”, the IC50 is 0.146 µM.
The matching figures for `Cc1cccc(-c2cc3ncnc(NNC(=S)NC4CCCC4)c3s2)c1` [Compound 46]: “most active”, “particularly active” and 0.256 µM.
For the compound `Cc1cccc(-c2cc3ncnc(NNC(=S)N[C@@H]4CCC[C@H]4OCc4ccccc4)c3s2)c1` [Compound 47], the “Activity ranking: particularly active examples of the compounds of the invention” value was “particularly active”. Besides, the IC50 (Homo sapiens, A549, 48 h) amounted to 7.16 µM.
In the case of `Cc1cccc(-c2cc3ncnc(NNC(=S)NCCCO)c3s2)c1` [Compound 48], the “Activity ranking: particularly active examples of the compounds of the invention” value was “particularly active”. For the same compound, the IC50 (Homo sapiens, A549, 48 h) came out at 1.43 µM.
As for `Cc1cccc(-c2cc3ncnc(NNC(=S)NCC(O)CO)c3s2)c1` (stereo not shown) [Compound 49], the “Activity ranking: particularly active examples of the compounds of the invention” value is “particularly active”.
Consider `Cc1cc(C)cc(-c2cc3ncnc(NNC(=S)Nc4ccccc4)c3s2)c1` [Compound 50], for which the “Activity ranking: most active compounds” value is on record as “most active” and the “Activity ranking: particularly active examples of the compounds of the invention” value is recorded as “particularly active”. The IC50 (Homo sapiens, A549, 48 h) was determined as 0.927 µM.
The matching figures for `Cc1ccc(-c2cc3ncnc(NNC(=S)Nc4ccccc4)c3s2)cc1C` [Compound 51]: “most active”, “particularly active” and 0.622 µM.
Take `S=C(NNc1ncnc2cc(-c3ccc4c(c3)OCO4)sc12)Nc1ccccc1` [Compound 52]: the “Activity ranking: particularly active examples of the compounds of the invention” value is on record as “particularly active”.
